Reference: paper PMC5430874 (Scientific Reports, 2017)
Where a chain is given by its changes, count along the chain named.

How the values were obtained:
Format in all cases: cell-based
[1] = biological target: T1, GPR139 E108A3x29 +E105A3x32 (Homo sapiens, UniProt Q6DWJ6, E105A/E108A); assay: Fluo-4 Ca2+-assay, GPR139 double mutant E105A_E108A
T1 construct: mGluR5 signal peptide (N); expressed in transfected cells; host or cells: HEK293
T1 sequence (Q6DWJ6 2-353 E105A/E108A limits assumed): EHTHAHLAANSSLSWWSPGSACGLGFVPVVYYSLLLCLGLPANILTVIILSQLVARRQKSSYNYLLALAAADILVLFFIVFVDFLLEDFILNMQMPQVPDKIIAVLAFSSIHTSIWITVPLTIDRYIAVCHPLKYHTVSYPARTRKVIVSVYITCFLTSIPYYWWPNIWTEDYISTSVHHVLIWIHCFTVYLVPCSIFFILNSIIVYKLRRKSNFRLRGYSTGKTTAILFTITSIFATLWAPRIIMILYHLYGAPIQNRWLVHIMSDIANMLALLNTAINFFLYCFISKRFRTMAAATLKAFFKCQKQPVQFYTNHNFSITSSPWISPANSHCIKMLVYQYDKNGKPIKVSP
From the text: (§1) To study the influence of specific amino acids in the predicted binding pocket on receptor function, the desired mutations were introduced into an N-terminally c-myc-tagged wild type human GPR139 (NM_001002911.3) in the pEGFP-N1 vector (BD Biosciences)[32], [33]. As previously described, these plasmids carry the signal peptide of mGluR5 to promote cell surface expression followed by a c-myc epitope to enable detection of total and surface expression by ELISA, followed by an engineered MluI and NotI site for easy insertion of the receptor of interest. Furthermore, the start-codon in the GPR139 sequence was deleted to ensure c-myc-tagging. […]
(§2) The Ca^2+ measurements were preformed using the Fluo-4 NW Calcium Assay Kit (Invitrogen, Molecular Probes, F36206) as previously described. […] Intracellular calcium changes were recorded as indicated on either a NOVOstar (BMG Labtech) at 37 °C with an excitation filter of 485 nm and an emission filters 520 nm or a FlexStation 3 Benchtop Multi-Mode Microplate Reader (Molecular Devices) at 37 °C with an excitation wavelength of 485 nm and emission of 525 nm.
(§3) All pharmacological data have been analyzed by using Prism 6.0 (GraphPad Software Inc., San Diego). […] Changes in potency (pEC50) and span of myc-GPR139(WT) in comparison to untagged GPR139(WT) was statistically analyzed with a paired t-test and significance was accepted at p < 0.05. […]

untagged GPR139(WT) = biological target: T2, untagged GPR139(WT) (Homo sapiens, UniProt Q6DWJ6); assay: Fluo-4 Ca2+-assay, untagged wild-type GPR139 in HEK293; conditions: untagged WT receptor
T2 construct: expressed in transfected cells; host or cells: HEK293
T2 sequence (Q6DWJ6 1-353): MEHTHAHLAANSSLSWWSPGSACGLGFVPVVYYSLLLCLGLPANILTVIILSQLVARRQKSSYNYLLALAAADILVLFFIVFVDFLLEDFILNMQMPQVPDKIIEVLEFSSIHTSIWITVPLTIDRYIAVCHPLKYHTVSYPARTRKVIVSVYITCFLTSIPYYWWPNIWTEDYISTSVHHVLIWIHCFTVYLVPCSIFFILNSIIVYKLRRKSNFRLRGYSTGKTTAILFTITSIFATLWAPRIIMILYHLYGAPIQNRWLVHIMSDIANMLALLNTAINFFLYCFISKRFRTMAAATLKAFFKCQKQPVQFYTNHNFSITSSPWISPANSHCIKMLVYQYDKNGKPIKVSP
From the text: as §1, §2, §3

GPR139 E105A3x29 = biological target: T3, GPR139 E105A3x29 (Homo sapiens, UniProt Q6DWJ6, E105A); assay: Fluo-4 Ca2+-assay, GPR139 mutant E105A
T3 construct: mGluR5 signal peptide (N); expressed in transfected cells; host or cells: HEK293
T3 sequence (Q6DWJ6 2-353 E105A limits assumed): T1 sequence (Q6DWJ6 2-353 E105A/E108A limits assumed) with A107E
From the text: as §1, §2, §3

COc1cc(OC)cc(C(=O)NNC(=O)Nc2cccc3ccccc23)c1 [Compound 1a]
EC50 [1]: 200 nM
Emax ([1]; normalized to buffer (0%) and 8 µM 1a (100%)): 196 ± 25%
EC50 (untagged GPR139(WT)): 772 nM
EC50 (GPR139 E105A3x29; E105A mutant): 129 nM
Emax (GPR139 E105A3x29; E105A, normalized to buffer (0%) and 8 µM 1a (100%)): 288 ± 27%
